Reference: patent publication US11549123B2, “Plant EPSP synthases and methods of use” (PIONEER HI-BRED INTERNATIONAL, INC., priority 2015, dated 2023)
Changes are numbered by the printed parent chain.

Key:
Format in all cases: biochemical
[1] = target: T1, Zea mays EPSPS variant V-G at positions 103-107 (Zea mays, UniProt O24566, P106G/T102V); assay: EPSPS substrate saturation kinetics, maize variant 103V 107G
T1 sequence (O24566 with tags, fused parts or gaps T102V/P106G): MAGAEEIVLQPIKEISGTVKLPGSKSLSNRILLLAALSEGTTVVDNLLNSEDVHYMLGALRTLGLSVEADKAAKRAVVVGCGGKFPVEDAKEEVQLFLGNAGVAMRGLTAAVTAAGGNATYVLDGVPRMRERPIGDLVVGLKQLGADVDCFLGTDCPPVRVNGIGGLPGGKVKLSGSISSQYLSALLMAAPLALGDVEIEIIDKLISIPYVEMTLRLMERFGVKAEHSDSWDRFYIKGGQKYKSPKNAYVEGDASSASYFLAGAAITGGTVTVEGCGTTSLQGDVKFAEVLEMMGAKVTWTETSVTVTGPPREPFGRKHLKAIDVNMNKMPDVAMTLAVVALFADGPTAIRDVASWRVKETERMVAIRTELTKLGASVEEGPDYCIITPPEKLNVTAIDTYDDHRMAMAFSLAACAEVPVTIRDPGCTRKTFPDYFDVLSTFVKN
Method: (§1) EPSPS activity was determined by quantifying the phosphate generated from the EPSPS reaction. Release of inorganic phosphate was coupled to reaction with 2-amino-6-mercapto-7-methylpurine ribonucleoside, catalyzed by purine-nucleoside phosphorylase (M R Webb, Proc. Natl. Acad. Sci. 89:4884-4887, 1992). The absorbance change that occurs was monitored at 360 nm, where the extinction is 11,200 M^−1 cm^−1, with a Spectramax plate reader (Molecular Devices). To determine kinetic parameters, the varied substrate was present at seven concentrations (the eighth being the blank, containing no substrate) ranging from 4 to 400 uM and the unvaried substrate present at saturation. Six microliters of 50-fold concentrated stock solutions of the varied substrate were placed in the wells of the 96-well assay plate and reactions were started with the addition of a mixture containing 25 mM Hepes, pH 7, 100 mM KCl, 0.3 mM 2-amino-6-mercapto-7-methylpurine ribonucleosde, 1 uM (1 unit/ml) purine-nucleoside phosphorylase (Sigma N8264) and 200 uM of the non-varied substrate. Reactions were monitored with a Spectramax plate reader. The Michaelis-Menten kinetics protocol of the Spectramax software was customized for the substrate concentrations used. The software returns values of KM and Vmax using the Lineweaver-Burke transformation of the Michaelis-Menten equation. To determine kcat, Vmax (uM/min) was divided by the enzyme concentration (uM). […] KI was then calculated from the following form of the Michaelis-Menten equation for competitive inhibition: KI=KM[I]/(KM app−KM) KM approximates the dissociation constant of the enzyme-substrate complex while kcat is the rate of conversion of substrate to product when the substrate concentration is saturating. kcat/KM is a widely accepted parameter for catalytic efficiency when substrate concentration is low (˜KM). […] The parameter kcat/KM×KI is used to quantify both catalytic efficiency and insensitivity and thus the overall fitness of the enzyme. […]

[2] = target: T2, Zea mays EPSPS variant WT-FS-E (102A 302S 391G 438R) (Zea mays, UniProt O24566, E301S/E390G/G101A/V437R); assay: EPSPS substrate saturation kinetics, WT-FS-E
T2 sequence (O24566 with tags, fused parts or gaps G101A/E301S/E390G/V437R): T1 sequence (O24566 with tags, fused parts or gaps T102V/P106G) with G102A, V103T, G107P, E302S, E391G, V438R
Method: as §1, with “reader.” for “reader. The Michaelis-Menten kinetics protocol of the Spectramax software was customized for the substrate concentrations used. The software returns values of KM and Vmax using the Lineweaver-Burke transformation of the Michaelis-Menten equation. To determine kcat, Vmax (uM/min) was divided by the enzyme concentration (uM).”
The vector DNA of the library was transformed into the BL21(DE3) Tuner AroA knockout strain and the cells were plated onto M9 medium containing 50 mM glyphosate. A small aliquot of the transformed cells was plated on LB, by which it was determined that 1.1×10^8 colony forming units, or 20% of the theoretical library size, were plated and screened. […]

[3] = target: T3, Zea mays EPSPS variant L-T at positions 103-107 (Zea mays, UniProt O24566, P106T/T102L); assay: EPSPS substrate saturation kinetics, maize variant 103L 107T
T3 sequence (O24566 with tags, fused parts or gaps T102L/P106T): T1 sequence (O24566 with tags, fused parts or gaps T102V/P106G) with V103L, G107T
Method: as §1

[4] = PEP as substrate, glyphosate as inhibitor

## C=C(OP(=O)(O)O)C(=O)O [PEP, phosphoenolpyruvate]
[1]; PEP varied
  kcat: 324
[2]; compared to G102A alone
  improvement in KM for PEP: 2 fold
[3]; PEP varied
  kcat: 184

## O=C(O)CNCP(=O)(O)O [glyphosate, N-phosphonomethylglycine]
[1]
  Ki: 480 µM
[1]; [4]
  (kcat/KM)*KI: 1170
[2]
  Ki: 1150 µM
[2]; [4]
  (kcat/KM)*KI: 2763
[3]
  Ki: 289 µM
[3]; [4]
  (kcat/KM)*KI: 1163
